Source: patent EP0603240B1, “SAFENING HERBICIDAL PYRAZOLYLSULFONYLUREAS” (priority 1991, dated 1993)

How the values were obtained:
Type in all cases: in vivo
[1] = test system: velvetleaf (Abutilon theophrasti); assay: Example 21, Procedure II: Herbicide No. 1 + SUTAN PLUS (butylate + antidote) with antidotes
Procedure: (§1) Containers were filled and compacted with a fumigated silt loam top soil to a depth of about 1.3 cm from the top of the container. A first container was designated as an untreated control, a second container was designated as a herbicide control, and a third container was designated as a herbicide + antidote test container. Each of the containers was seeded with a crop species. A measured amount of herbicide dispersed or dissolved in acetone was applied to a measured quantity of soil. To this same quantity of soil treated with herbicide, there was added a measured amount of antidote dispersed or dissolved in acetone. The quantity of soil treated with the herbicide and antidote was thoroughly mixed to incorporate the herbicide and antidote in the soil uniformly. The seed bed in the third container of soil was covered with the soil treated with the herbicide and antidote and the container was leveled. For each test series, the seed beds of the first and second containers were likewise covered by soil layers. the cover layer of the first container was not treated with herbicide or antidote.
(§2) The containers were then placed on a bench in a greenhouse and sub-irrigated as required for the duration of the test. […] Plant response is measured in terms of percent injury. Antidote efficacy is indicated as the difference in plant injury by the herbicide(s) without the antidote and with the antidote.
(§3) This procedure is the same as Procedure I, but modified in the manner that after incorporation of the chemicals (herbicide and antidote) the containers with the covered seedbed were treated with an initial overhead irrigation equivalent to 0.6 cm rainfall, then subsequently sub-irrigated as required on greenhouse benches.
(§4) In the series of greenhouse tests described below, for routine screening purposes the herbicide/antidote compositions were tested in crop/weed combinations involving corn as the crop and either or both of the weeds barnyardgrass (Echinochloa crusgalli), a monocotyledonous weed, and velvetleaf (Abutilon theophrasti), a dicotyledonous weed. In the tables below, these weeds are indicated by the symbols "BYG" and "VL", respectively.
(§5) In this example, tests were conducted as in the preceding Examples 18-20, except here the co-herbicidal component was SUTAN® PLUS, a commercial product comprising as the active herbicidal ingredient the compound butylate (Herbicide No. 10) and an antidote […] (Antidote No. 1). Again, the antidotal compounds herein were Nos. 1, 2, 7, 13 and 15. Procedure II was used.

[2] = test system: barnyardgrass (Echinochloa crusgalli); assay: as above
Procedure: as §1, §2, §3, §4, §5

[3] = test system: velvetleaf (Abutilon theophrasti); assay: Example 7, Procedure II: Herbicide No. 1 + metolachlor (No. 12) with antidotes
Procedure: as §1, §2, §3, §4
(§6) In this example, Procedure II described above was followed. The data from the tests in this example is shown in Table 6 and represents averages of duplicate replications.
(§7) The tests in this example followed the same procedure and antidotes used in Example 6. However, Herbicide No. 12 (metolachlor) was used as the co-herbicide with Herbicide No. 1.

[4] = test system: barnyardgrass (Echinochloa crusgalli); assay: as above
Procedure: as §1, §2, §3, §4, §6, §7

corn [5] = assay: Example 9, Procedure II: Herbicide No. 1 + pretilachlor (No. 13) with antidotes
Procedure: as §1, §2, §3
In this example the safening effect on a composition comprising Herbicide No. 1 and another leading rice herbicide, i.e., Herbicide No. 13, was investigated using the same antidotes and test procedure described in the preceding example. Herbicide No. 13 is pretilachlor, active ingredient used in the commercial rice herbicides RIFIT®, SOFIT® and SOFIT® SUPER.

corn [6] = assay: Example 8, Procedure II: Herbicide No. 1 + butachlor (No. 9) with antidotes
Procedure: as §1, §2, §3
In this test, the efficacy of the same five antidotes used in Examples 6 and 7 was investigated in compositions comprising Herbicide No. 1 and as a co-herbicide, butachlor (Herbicide No. 9), active ingredient in MACHETE® herbicide, a leading commercial rice herbicide. The test procedure used in this example was the same as that in Examples 6 and 7.

[7] = test system: velvetleaf (Abutilon theophrasti); assay: Example 18, Procedure II: Herbicide No. 1 + ERADICANE (EPTC + R-25788) with auxiliary antidotes
Procedure: as §1, §2, §3, §4
(§8) In the test reported in this example, the herbicidal composition was similar to that used in Example 16 in that Herbicide No. 1 was combined with EPTC (Herbicide No. 4) as a co-herbicide and the antidotes included Nos. 1, 2, 7, 13 and 15. However, in this test the EPTC was introduced as a formulation of ERADICANE (EPTC + the antidote R-25788, i.e., Antidote No. 1) at an application rate of 8.96 kg/ha. Thus, in this test two antidotes were present, viz. R-25788 and one of the auxilliary antidotes, No. 2, 13 and 15.
(§9) Test procedures were those of Procedure II above.

[8] = test system: barnyardgrass (Echinochloa crusgalli); assay: as above
Procedure: as §1, §2, §3, §4, §8, §9

[9] = test system: velvetleaf (Abutilon theophrasti); assay: Example 19, Procedure II: Herbicide No. 1 + ERADICANE EXTRA with added antidotes
Procedure: as §1, §2, §3, §4, §8
(§10) The test reported in this example was performed in the same manner and with the same antidotes used in Example 18, the only difference being the substitution of the commercial herbicidal product ERADICANE® EXTRA for ERADICANE®. ERADICANE EXTRA is a formulation containing both an antidote, i.e., R-29148 (Antidote No. 5 herein), and an extender, dietholate.

[10] = test system: barnyardgrass (Echinochloa crusgalli); assay: as above
Procedure: as §1, §2, §3, §4, §8, §10

[11] = Herbicide No.1 0.56 kg/ha + SUTAN + 8.96 kg/ha, antidote 2.24 kg/ha
[12] = Herbicide No.1 0.56 kg/ha + SUTAN + 8.96 kg/ha, antidote 8.96 kg/ha
[13] = Herbicide No.1 1.12 kg/ha + SUTAN + 8.96 kg/ha, antidote 2.24 kg/ha
[14] = Herbicide No.1 1.12 kg/ha + SUTAN + 8.96 kg/ha, antidote 8.96 kg/ha
[15] = Herbicide No.1 0.14 + No.12 3.36 kg/ha + antidote 2.24 kg/ha
[16] = Herbicide No.1 0.14 + No.12 3.36 kg/ha + antidote 8.96 kg/ha
[17] = Herbicide No.1 0.56 + No.12 3.36 kg/ha + antidote 2.24 kg/ha
[18] = Herbicide No.1 0.56 + No.12 3.36 kg/ha + antidote 8.96 kg/ha
[19] = Herbicide No.1 0.14 kg/ha + Herbicide No.13 2.24 kg/ha, antidote rate 2.24 kg/ha
[20] = Herbicide No.1 0.14 kg/ha + Herbicide No.13 2.24 kg/ha, antidote rate 8.96 kg/ha
[21] = Herbicide No.1 0.56 kg/ha + Herbicide No.13 2.24 kg/ha, antidote rate 2.24 kg/ha
[22] = Herbicide No.1 0.56 kg/ha + Herbicide No.13 2.24 kg/ha, antidote rate 8.96 kg/ha
[23] = Herbicide No.1 0.14 + No.9 2.24 kg/ha + antidote 2.24 kg/ha
[24] = Herbicide No.1 0.14 + No.9 2.24 kg/ha + antidote 8.96 kg/ha
[25] = Herbicide No.1 0.56 + No.9 2.24 kg/ha + antidote 2.24 kg/ha
[26] = Herbicide No.1 0.56 + No.9 2.24 kg/ha + antidote 8.96 kg/ha
[27] = Herbicide No.1 0.56 kg/ha + ERADICANE 8.96 kg/ha, antidote 2.24 kg/ha
[28] = Herbicide No.1 0.56 kg/ha + ERADICANE 8.96 kg/ha, antidote 8.96 kg/ha
[29] = Herbicide No.1 1.12 kg/ha + ERADICANE 8.96 kg/ha, antidote 2.24 kg/ha
[30] = Herbicide No.1 1.12 kg/ha + ERADICANE 8.96 kg/ha, antidote 8.96 kg/ha
[31] = Herbicide No.1 0.56 kg/ha + ERADICANE EXTRA 8.96 kg/ha, antidote 2.24 kg/ha
[32] = Herbicide No.1 0.56 kg/ha + ERADICANE EXTRA 8.96 kg/ha, antidote 8.96 kg/ha
[33] = Herbicide No.1 1.12 kg/ha + ERADICANE EXTRA 8.96 kg/ha, antidote 2.24 kg/ha
[34] = Herbicide No.1 1.12 kg/ha + ERADICANE EXTRA 8.96 kg/ha, antidote 8.96 kg/ha

CC1(C)OC(c2ccco2)CN1C(=O)C(Cl)Cl (centres unmarked) [compound 15]
% Injury VL [1, 11]: 50% | % Injury VL [1, 12]: 60% | % Injury VL [1, 13]: 65% | % Injury VL [1, 14]: 65% | % Injury BYG [2, 11]: 0% | % Injury BYG [2, 12]: 10% | % Injury BYG [2, 13]: 15% | % Injury BYG [2, 14]: 40% | % Injury VL [3, 15]: 70% | % Injury VL [3, 16]: 65% | % Injury VL [3, 17]: 75% | % Injury VL [3, 18]: 70% | % Injury BYG [4, 15]: 100% | % Injury BYG [4, 16]: 100% | % Injury BYG [4, 17]: 100% | % Injury BYG [4, 18]: 100% | % Injury Corn (corn [5]; [19]): 5% | % Injury Corn (corn [5]; [20]): 0% | % Injury Corn (corn [5]; [21]): 15% | % Injury Corn (corn [5]; [22]): 5% | % Injury Corn (corn [6]; [23]): 20% | % Injury Corn (corn [6]; [24]): 15% | % Injury Corn (corn [6]; [25]): 10% | % Injury Corn (corn [6]; [26]): 10% | % Injury VL [7, 27]: 80% | % Injury VL [7, 28]: 85% | % Injury VL [7, 29]: 80% | % Injury VL [7, 30]: 65% | % Injury BYG [8, 27]: 90% | % Injury BYG [8, 28]: 90% | % Injury BYG [8, 29]: 93% | % Injury BYG [8, 30]: 85% | % Injury VL [9, 31]: 70% | % Injury VL [9, 32]: 75% | % Injury VL [9, 33]: 85% | % Injury VL [9, 34]: 75% | % Injury BYG [10, 31]: 90% | % Injury BYG [10, 32]: 85% | % Injury BYG [10, 33]: 85% | % Injury BYG [10, 34]: 90%

O=C(C(Cl)Cl)N1CCOC12CCCCC2 [compound 7]
% Injury VL [1, 11]: 45% | % Injury VL [1, 12]: 65% | % Injury VL [1, 13]: 65% | % Injury VL [1, 14]: 45% | % Injury BYG [2, 11]: 25% | % Injury BYG [2, 12]: 10% | % Injury BYG [2, 13]: 40% | % Injury BYG [2, 14]: 10% | % Injury VL [3, 15]: 70% | % Injury VL [3, 16]: 65% | % Injury VL [3, 17]: 85% | % Injury VL [3, 18]: 85% | % Injury BYG [4, 15]: 100% | % Injury BYG [4, 16]: 100% | % Injury BYG [4, 17]: 100% | % Injury BYG [4, 18]: 100% | % Injury Corn (corn [5]; [19]): 10% | % Injury Corn (corn [5]; [20]): 0% | % Injury Corn (corn [5]; [21]): 30% | % Injury Corn (corn [5]; [22]): 25% | % Injury Corn (corn [6]; [23]): 5% | % Injury Corn (corn [6]; [24]): 10% | % Injury Corn (corn [6]; [25]): 25% | % Injury Corn (corn [6]; [26]): 20% | % Injury VL [7, 27]: 75% | % Injury VL [7, 28]: 80% | % Injury VL [7, 29]: 70% | % Injury VL [7, 30]: 75% | % Injury BYG [8, 27]: 90% | % Injury BYG [8, 28]: 85% | % Injury BYG [8, 29]: 85% | % Injury BYG [8, 30]: 85% | % Injury VL [9, 31]: 75% | % Injury VL [9, 32]: 80% | % Injury VL [9, 33]: 75% | % Injury VL [9, 34]: 85% | % Injury BYG [10, 31]: 85% | % Injury BYG [10, 32]: 85% | % Injury BYG [10, 33]: 90% | % Injury BYG [10, 34]: 85%
